# Biological target: T1, IKKε (Homo sapiens, UniProt Q14164)
# T1 construct: His-tag; made in house; host or cells: Sf9 insect cells
# T1 sequence (Q14164 1-716): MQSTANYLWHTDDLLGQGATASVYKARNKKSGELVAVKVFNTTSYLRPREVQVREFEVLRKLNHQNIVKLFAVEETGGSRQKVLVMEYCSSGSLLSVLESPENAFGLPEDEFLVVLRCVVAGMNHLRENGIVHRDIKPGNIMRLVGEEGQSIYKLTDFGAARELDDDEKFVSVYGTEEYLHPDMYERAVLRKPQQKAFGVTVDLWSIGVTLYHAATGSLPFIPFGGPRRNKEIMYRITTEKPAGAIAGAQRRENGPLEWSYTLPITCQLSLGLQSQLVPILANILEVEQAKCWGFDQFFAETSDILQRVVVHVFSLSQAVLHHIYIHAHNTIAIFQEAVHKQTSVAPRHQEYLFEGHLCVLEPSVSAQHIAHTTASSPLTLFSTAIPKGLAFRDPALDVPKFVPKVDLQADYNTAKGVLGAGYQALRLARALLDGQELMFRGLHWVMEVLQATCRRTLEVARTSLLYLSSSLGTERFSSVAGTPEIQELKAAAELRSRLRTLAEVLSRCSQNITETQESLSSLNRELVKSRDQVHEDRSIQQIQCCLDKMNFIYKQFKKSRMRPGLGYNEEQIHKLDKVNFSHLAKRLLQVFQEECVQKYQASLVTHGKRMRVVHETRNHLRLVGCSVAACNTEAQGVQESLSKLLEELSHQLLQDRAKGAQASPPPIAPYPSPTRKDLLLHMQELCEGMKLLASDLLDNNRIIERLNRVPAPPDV
# Assay: In-vitro IKKε kinase assay ([γ33]ATP filter-plate)
# Assay type: biochemical
# Conditions: text bins; read-out: IC50 for inhibition of the kinase activity of IKKε
# Procedure, shortened: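 His-tagged IKKε and TBK1 from Sf9 cells were assayed with myelin basic protein or casein and [γ33]ATP at 2×Km ATP (32 μM for IKKε, 60 μM for TBK1). Enzyme was 0.1 or 0.015 μg/ml for IKKε and 0.1 or 0.02 μg/ml for TBK1 (normal/sensitized). Reactions ran 30-45 min, were filter-captured, scintillation-counted, and normalized to DMSO after background subtraction.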
row,IC50 [nM],Compound
1,50 to 500,"COc1ccc(Nc2nccc(-c3cccc(C#N)c3)n2)cc1F [Example 66, 3-{2-[(3-Fluoro-4-methoxyphenyl)amino]pyrimidin-4-yl}benzonitrile]"
2,< 5,"CC(C)(O)CNC(=O)Nc1cccc(Nc2nccc(-c3ccc(OC4CCOCC4)c(C#N)c3)n2)c1 [compound 649, 1-[3-({4-[3-Cyano-4-(tetrahydro-2H-pyran-4-yloxy)phenyl]pyrimidin-2-yl}amino)phenyl]-3-(2-hydroxy-2-methylpropyl)urea]"
3,50 to 500,"C[C@@H](O)C(=O)N1CCC(Oc2ccc(-c3ccnc(Nc4ccc(N5CCOCC5)cc4)n3)cc2C#N)C1 (stereo partly drawn) [Example 142, 2-({1-[(2R)-2-hydroxypropanoyl]pyrrolidin-3-yl}oxy)-5-(2-{[4-(morpholin-4-yl)phenyl]amino}pyrimidin-4-yl)benzonitrile]"
4,5 to 50,"COc1ccc(-c2ccnc(Nc3ccc(S(N)(=O)=O)cc3)n2)cc1C#N [compound 323, 4-{[4-(3-Cyano-4-methoxyphenyl)pyrimidin-2-yl]amino} benzenesulfonamide]"
5,< 5,"N#Cc1cc(-c2ccnc(Nc3ccc(-c4ccncc4)cc3)n2)ccc1OC1CCOCC1 [compound 610, 5-(2-{[4-(Pyridin-4-yl)phenyl]amino}pyrimidin-4-yl)-2-(tetrahydro-2H-pyran-4-yloxy)benzonitrile]"
6,50 to 500,"CN(C)CC(=O)N1CCC(Oc2ccc(-c3ccnc(Nc4ccc(N5CCOCC5)cc4)n3)cc2C#N)CC1 [Example 160, 2-{[1-(N,N-dimethylglycyl)piperidin-4-yl]oxy}-5-(2-{[4-(morpholin-4-yl)phenyl]amino}pyrimidin-4-yl)benzonitrile]"
7,< 5,"N#Cc1cc(-c2ccnc(Nc3cccc(NC(=O)NCCO)c3)n2)ccc1OC1CCOCC1 [compound 622, 1-[3-({4-[3-Cyano-4-(tetrahydro-2H-pyran-4-yloxy)phenyl]pyrimidin-2-yl}amino)phenyl]-3-(2-hydroxyethyl)urea]"
8,50 to 500,"CC(C)NC(=O)N1CCC(Oc2ccc(-c3ccnc(Nc4ccc(N5CCOCC5)cc4)n3)cc2C#N)CC1 [Example 37, 4-[2-Cyano-4-(2-{[4-(morpholin-4-yl)phenyl]amino}pyrimidin-4-yl)phenoxy]-N-(propan-2-yl)piperidine-1-carboxamide]"
9,< 5,"N#Cc1cc(-c2ccnc(Nc3cccc(-c4ccncc4)c3)n2)ccc1OC1CCOCC1 [compound 573, 5-(2-{[3-(Pyridin-4-yl)phenyl]amino}pyrimidin-4-yl)-2-(tetrahydro-2H-pyran-4-yloxy)benzonitrile]"
10,50 to 500,"COc1ccc(-c2ccnc(Nc3ccc(NC(=O)NCCCO)cc3)n2)cc1C#N [Example 7, 1-(4-{[4-(3-Cyano-4-methoxyphenyl)pyrimidin-2-yl]amino}phenyl)-3-(3-hydroxypropyl)urea]"
11,50 to 500,"N#Cc1cccc(-c2ccnc(Nc3ccc4c(c3)OCCO4)n2)c1 [Example 232, 3-[2-(2,3-Dihydro-1,4-benzodioxin-6-ylamino)pyrimidin-4-yl]benzonitrile]"
12,50 to 500,"COc1ccc(-c2ccnc(Nc3cccc(S(=O)(=O)NCCO)c3)n2)cc1C#N [compound 309, 3-{[4-(3-Cyano-4-methoxyphenyl)pyrimidin-2-yl]amino}-N-(2-hydroxyethyl) benzenesulfonamide]"
13,5 to 50,"CC(C)C(=O)Nc1ccc(-c2ccnc(Nc3ccc(OCCCN4CCOCC4)cc3)n2)cc1C#N [compound 430, N-{2-cyano-4-[2-({4-[3-(morpholin-4-yl)propoxy]phenyl}amino)pyrimidin-4-yl]phenyl}-2-methylpropanamide]"
14,5 to 50,"CC(C)NCCc1ccc(Nc2nccc(-c3ccc(NC(=O)C(C)C)c(C#N)c3)n2)cc1 [compound 462, N-{2-cyano-4-[2-({4-[2-(propan-2-ylamino)ethyl]phenyl}amino)pyrimidin-4-yl]phenyl}-2-methylpropanamide]"
15,5 to 50,"COc1ccc(-c2ccnc(Nc3ccccc3)n2)cc1C#N [compound 299, 2-Methoxy-5-[2-(phenylamino)pyrimidin-4-yl]benzonitrile]"
16,5 to 50,"N#Cc1cc(Cl)cc(-c2ccnc(Nc3ccc(N4CCOCC4)cc3)n2)c1 [Example 50, 3-Chloro-5-(2-{[4-(morpholin-4-yl)phenyl]amino}pyrimidin-4-yl)benzonitrile]"
17,50 to 500,"CC(=O)OC(C)C(=O)Nc1ccc(-c2ccnc(Nc3ccc(N4CCOCC4)cc3)n2)cc1C#N (stereo not drawn) [Example 147, 1-{[2-cyano-4-(2-{[4-(morpholin-4-yl)phenyl]amino}pyrimidin-4-yl)phenyl]amino}-1-oxopropan-2-yl acetate]"

row,IC50 [nM],Compound
1,50 to 500,"COc1ccc(-c2ccnc(Nc3ccc(NC(=O)NC4CCCC4)cc3)n2)cc1C#N [Example 8, 1-(4-{[4-(3-Cyano-4-methoxyphenyl)pyrimidin-2-yl]amino}phenyl)-3-cyclopentylurea]"
2,50 to 500,CC(C)(C)c1cccc(Nc2nccc(-c3cccc(C#N)c3)n2)c1 [compound 300]
3,< 5,"N#Cc1cc(-c2ccnc(Nc3cccc(-c4cccnc4)c3)n2)ccc1OC1CCOCC1 [compound 549, 5-(2-{[3-(Pyridin-3-yl)phenyl]amino}pyrimidin-4-yl)-2-(tetrahydro-2H-pyran-4-yloxy)benzonitrile]"
4,< 5,COC1CN(c2cccc(Nc3nccc(-c4ccc(O[C@@H]5CCN(C(=O)CO)C5)c(C#N)c4)n3)c2)C1 [compound 639]
5,50 to 500,"COc1cc(Nc2nccc(-c3ccc(OC)c(C#N)c3)n2)ccc1C [compound 325, 2-Methoxy-5-{2-[(3-methoxy-4-methylphenyl)amino]pyrimidin-4-yl}benzonitrile]"
6,50 to 500,"CN(C)c1cccc(Nc2nccc(-c3cccc(C#N)c3)n2)c1 [compound 379, 3-(2-{[3-(Dimethylamino)phenyl]amino}pyrimidin-4-yl)benzonitrile]"
7,50 to 500,"CC(C)(N)C(=O)N1CCC(COc2ccc(-c3ccnc(Nc4ccc(N5CCOCC5)cc4)n3)cc2C#N)CC1 [Example 255, 2-{[1-(2-methylalanyl)piperidin-4-yl]methoxy}-5-(2-{[4-(morpholin-4-yl)phenyl]amino}pyrimidin-4-yl)benzonitrile]"
8,50 to 500,"N#Cc1cc(-c2ccnc(Nc3ccc(N4CCOCC4)cc3)n2)ccc1OC1CCN(C(=O)C2CC2)C1 (stereo not drawn) [Example 151, 2-{[1-(cyclopropylcarbonyl)pyrrolidin-3-yl]oxy}-5-(2-{[4-(morpholin-4-yl)phenyl]amino}pyrimidin-4-yl)benzonitrile]"
9,50 to 500,"CN(C)C(=O)N1CCC(Oc2ccc(-c3ccnc(Nc4ccc(N5CCOCC5)cc4)n3)cc2C#N)CC1 [Example 166, 4-[2-Cyano-4-(2-{[4-(morpholin-4-yl)phenyl]amino}pyrimidin-4-yl)phenoxy]-N,N-dimethylpiperidine-1-carboxamide]"
10,< 5,"Cn1cc(-c2ccc(Nc3nccc(-c4ccc(OC5CCOCC5)c(C#N)c4)n3)cc2)cn1 [compound 584, 5-(2-{[4-(1-Methyl-1H-pyrazol-4-yl)phenyl]amino}pyrimidin-4-yl)-2-(tetrahydro-2H-pyran-4-yloxy)benzonitrile]"
11,< 5,CC(=O)NS(=O)(=O)c1ccc(Nc2nccc(-c3ccc(OC4CCOCC4)c(C#N)c3)n2)cc1 [compound 630]
12,< 5,"N#Cc1cc(-c2ccnc(Nc3cccc(Cn4ccnn4)c3)n2)ccc1OC1CCOCC1 [compound 576, 2-(Tetrahydro-2H-pyran-4-yloxy)-5-(2-{[3-(1H-1,2,3-triazol-1-ylmethyl)phenyl]amino}pyrimidin-4-yl)benzonitrile]"
13,50 to 500,"N#Cc1cc(-c2ccnc(Nc3ccc(N4CCOCC4)cc3)n2)ccc1OCC1CCN(C(=O)C2(N)CC2)CC1 [Example 42, 2-({1-[(1-aminocyclopropyl)carbonyl]piperidin-4-yl}methoxy)-5-(2-{[4-(morpholin-4-yl)phenyl]amino}pyrimidin-4-yl)benzonitrile]"
14,50 to 500,"N#Cc1cc(-c2ccnc(Nc3ccc(N4CCOCC4)cc3)n2)ccc1NC(=O)NC1CCC(O)CC1 (stereo not drawn) [Example 46, 1-[2-cyano-4-(2-{[4-(morpholin-4-yl)phenyl]amino}pyrimidin-4-yl)phenyl]-3-(4-hydroxycyclohexyl) urea]"
15,5 to 50,"CC(C)C(=O)Nc1ccc(-c2ccnc(Nc3ccc(N4CCOCC4)cc3)n2)cc1C#N [Example 267, N-[2-Cyano-4-(2-{[4-(morpholin-4-yl)phenyl]amino}pyrimidin-4-yl)phenyl]-2-methylpropanamide]"
16,5 to 50,"COc1cc(NC(C)=O)cc(Nc2nccc(-c3ccc(OC)c(C#N)c3)n2)c1 [Example 279, N-(3-{[4-(3-Cyano-4-methoxyphenyl)pyrimidin-2-yl]amino}-5-methoxyphenyl) acetamide]"

# From patent US20150352108A1, “AMINO-PYRIMIDINE COMPOUNDS AS INHIBITORS OF TBK1 AND/OR IKK EPSILON” (Alzheimer's Institute of America, priority 2009, published 2015)
